Laboratory results from PMC4109836, “Analysis of the co-operative interaction between the allosterically regulated proteins GK and GKRP using tryptophan fluorescence” (Biochemical Journal, 2014).

B1: GKRP-P446L: recombinant human GKRP variant P446L (protein)
chain: MPGTKRFQHVIETPEPGKWELSGYEAAVPITEKSNPLTQDLDKADAENIVRLLGQCDAEIFQEEGQALSTYQRLYSESILTTMVQVAGKVQEVLKEPDGGLVVLSGGGTSGRMAFLMSVSFNQLMKGLGQKPLYTYLIAGGDRSVVASREGTEDSALHGIEELKKVAAGKKRVIVIGISVGLSAPFVAGQMDCCMNNTAVFLPVLVGFNPVSMARNDPIEDWSSTFRQVAERMQKMQEKQKAFVLNPAIGPEGLSGSSRMKGGSATKILLETLLLAAHKTVDQGIAASQRCLLEILRTFERAHQVTYSQSPKIATLMKSVSTSLEKKGHVYLVGWQTLGIIAIMDGVECIHTFGADFRDVRGFLIGDHSDMFNQKAELTNQGPQFTFSQEDFLTSILPSLTEIDTVVFIFTLDDNLTEVQTIVEQVKEKTNHIQALAHSTVGQTLLIPLKKLFPSIISITWPLLFFEYEGNFIQKFQRELSTKWVLNTVSTGAHVLLGKILQNHMLDLRISNSKLFWRALAMLQRFSGQSKARCIESLLRAIHFPQPLSDDIRAAPISCHVQVAHEKEQVIPIALLSLLFRCSITEAQAHLAAAPSVCEAVRSALAGPGQKRTADPLEILEPDVQ
modifications: left off: FLAG, end not stated, state not stated

Key:
subjects with T2D = system: subjects with T2D; set-up: method as in PMID 21994424; settings: cited from earlier work
[1] = Structural stability from urea denaturation curves (TF); format: physicochemical, human; settings: buffer pH 7.2, 20°C; ±0.05

Molecule	clinical effect, higher doses (subjects with T2D; higher doses of the drug)	clinical effect, low dose (subjects with T2D; low dose of the drug)	ΔG(H2O) from urea denaturation curves [1]
CCS(=O)(=O)c1ccc(Oc2cc(O[C@@H](C)CO)cc(C(=O)Nc3ccn(C)n3)c2)cn1 [MK0941]	fast-onset transient effects associated with an increase in blood lipids and cardiovascular side effects	slow-onset long-lasting beneficial effect	–
B1	–	–	1.55 kcal/mol
